In general, EC50 refers to the midpoint of the concentration-response curve. In general, IC50 refers to the point on the concentration scale where inhibition reaches its midpoint. Broadly, the AC50 is the midpoint of the concentration-response curve, whichever way the signal moves. One may read the CC50 as the concentration giving 50% cytotoxicity.

The source made the active and inactive calls.

A short description of assay [1]: NIH3T3 cell viability loss – ATP luminescence, mouse fibroblasts, counter-screen, dose response (AID 2010).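 Further: cells exposed to compound for about 90 hours before reading.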 The format is functional, cell-based. For orientation: The purpose of a counterscreen is to sort out artefacts and off-target activity.
A short description of assay [2]: Trypanosoma cruzi growth suppression in host cells – NIH3T3 host cells, beta-gal luminescence, confirmation (AID 2044).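 Further: intracellular parasites grown in NIH/3T3 mouse fibroblasts as host cells; luminescent beta-galactosidase reporter signal from transgenic T. cruzi replicating inside host cells; inhibitors lower the luminescence signal.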 The format is functional, cell-based.
For another assay, the system named is H9c2. As to the kind of experiment: cells. The format is functional, cell-based. As to conditions: Rattus norvegicus, H9c2, Myocardium.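 Further: confirmatory concentration-response retest of ultra-high-throughput screening hits for modulation of myocardial damage; cell death induced by hydrogen peroxide oxidative stress; compound pretreatment for 60 min then peroxide exposure for 2 h; potency is for protecting the cells against peroxide damage rather than for killing them.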
Assay [3] concerns the target T1, Mannose-6-phosphate isomerase (Homo sapiens, UniProt P34949).
T1 sequence (P34949 whole entry): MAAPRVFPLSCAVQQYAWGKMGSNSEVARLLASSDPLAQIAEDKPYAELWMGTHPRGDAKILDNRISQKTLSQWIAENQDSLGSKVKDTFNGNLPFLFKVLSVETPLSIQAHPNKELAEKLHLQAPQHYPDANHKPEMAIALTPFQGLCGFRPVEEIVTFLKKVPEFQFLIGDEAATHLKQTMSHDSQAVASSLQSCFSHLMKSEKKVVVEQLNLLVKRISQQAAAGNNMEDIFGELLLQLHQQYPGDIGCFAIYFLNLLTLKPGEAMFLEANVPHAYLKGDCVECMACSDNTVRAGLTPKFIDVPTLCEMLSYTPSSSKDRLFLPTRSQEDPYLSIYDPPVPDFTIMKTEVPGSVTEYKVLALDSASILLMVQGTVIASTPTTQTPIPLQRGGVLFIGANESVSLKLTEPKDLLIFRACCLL
Briefly: MPI inhibition at elevated mannose 6-phosphate – biochemical, fluorescence intensity, high mannose 6-phosphate, primary screen (AID 1220).

The target in assay [4] is Mitogen-activated protein kinase 10 (Homo sapiens, UniProt P53779). Briefly: Dose response biochemical screening assay for inhibitors of c-Jun N-Terminal Kinase 3 (JNK3). [Related pubchem assays: 746 ].
In assay [5] the target is Voltage-gated inwardly rectifying potassium channel KCNH2 (Homo sapiens, UniProt Q12809). As to the kind of experiment: concentration-dependent hERG rescue from blockers – cell-based, thallium flux, dose response (AID 2121). The format is ADME. For orientation: Block of hERG is tested as a sign of cardiac risk.
In a further assay the target is Genome polyprotein (dengue virus type 2, UniProt P29990). Briefly: flavivirus cap methylation enzyme inhibition – biochemical, confirmation dose response, primary screen (AID 588689). The format is functional.
The target in assay [6] is T2, Rac GTPase-activating protein 1 (Homo sapiens, UniProt Q9H0H5).
T2 sequence (Q9H0H5 whole entry): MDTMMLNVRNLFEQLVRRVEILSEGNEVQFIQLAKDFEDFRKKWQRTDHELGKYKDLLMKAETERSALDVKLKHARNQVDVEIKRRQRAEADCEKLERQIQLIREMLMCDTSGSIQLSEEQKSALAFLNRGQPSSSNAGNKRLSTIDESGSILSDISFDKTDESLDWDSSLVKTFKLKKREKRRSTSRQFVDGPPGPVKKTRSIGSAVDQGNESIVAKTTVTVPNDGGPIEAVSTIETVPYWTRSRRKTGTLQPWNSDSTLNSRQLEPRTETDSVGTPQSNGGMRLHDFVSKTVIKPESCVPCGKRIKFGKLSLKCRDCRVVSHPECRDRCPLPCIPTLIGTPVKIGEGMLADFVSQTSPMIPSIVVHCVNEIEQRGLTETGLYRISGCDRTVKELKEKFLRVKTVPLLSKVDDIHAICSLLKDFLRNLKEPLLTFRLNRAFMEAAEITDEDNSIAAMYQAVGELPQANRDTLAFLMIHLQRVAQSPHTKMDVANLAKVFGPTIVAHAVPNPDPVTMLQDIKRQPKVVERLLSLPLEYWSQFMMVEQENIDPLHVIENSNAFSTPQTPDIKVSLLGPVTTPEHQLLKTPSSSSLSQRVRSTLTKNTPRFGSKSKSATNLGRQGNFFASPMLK
As to the kind of experiment: blockers of MgcRacGAP-driven Rac1 GTP hydrolysis – biochemical, ADP Hunter fluorescence, primary and confirmatory, confirmation (AID 624330). The format is functional.

Assay [7] concerns the target T3, Heat shock factor protein 1 (Mus musculus, UniProt P38532).
T3 sequence (P38532 whole entry): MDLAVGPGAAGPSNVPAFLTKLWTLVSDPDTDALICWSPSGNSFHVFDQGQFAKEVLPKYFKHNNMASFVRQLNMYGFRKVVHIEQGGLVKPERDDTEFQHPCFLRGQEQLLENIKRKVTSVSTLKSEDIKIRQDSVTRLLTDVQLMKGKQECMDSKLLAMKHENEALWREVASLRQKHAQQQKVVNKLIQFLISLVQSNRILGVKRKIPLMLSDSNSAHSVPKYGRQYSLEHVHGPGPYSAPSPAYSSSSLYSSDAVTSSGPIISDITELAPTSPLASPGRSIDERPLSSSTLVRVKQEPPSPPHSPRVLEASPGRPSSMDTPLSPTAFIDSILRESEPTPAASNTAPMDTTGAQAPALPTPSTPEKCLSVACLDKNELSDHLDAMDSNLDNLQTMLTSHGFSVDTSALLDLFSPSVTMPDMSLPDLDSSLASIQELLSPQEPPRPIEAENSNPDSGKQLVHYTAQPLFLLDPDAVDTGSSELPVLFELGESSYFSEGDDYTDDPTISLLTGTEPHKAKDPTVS
Briefly: enhancement of HSF1-driven luciferase signal – cell-based, NIH3T3, luminescence, dose retest, confirmation (AID 435004).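 Further: stress induced by proteasome inhibitor MG132 added 30 min after compound; luciferase reporter driven by HSF1 response element in NIH3T3 cells; actives raise luminescence as potentiators of the MG132 stress response.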 The format is functional.

Assay [8] deals with T4, Replicative DNA helicase DnaB (Mycobacterium tuberculosis, UniProt P9WMR3).
T4 sequence (P9WMR3 whole entry): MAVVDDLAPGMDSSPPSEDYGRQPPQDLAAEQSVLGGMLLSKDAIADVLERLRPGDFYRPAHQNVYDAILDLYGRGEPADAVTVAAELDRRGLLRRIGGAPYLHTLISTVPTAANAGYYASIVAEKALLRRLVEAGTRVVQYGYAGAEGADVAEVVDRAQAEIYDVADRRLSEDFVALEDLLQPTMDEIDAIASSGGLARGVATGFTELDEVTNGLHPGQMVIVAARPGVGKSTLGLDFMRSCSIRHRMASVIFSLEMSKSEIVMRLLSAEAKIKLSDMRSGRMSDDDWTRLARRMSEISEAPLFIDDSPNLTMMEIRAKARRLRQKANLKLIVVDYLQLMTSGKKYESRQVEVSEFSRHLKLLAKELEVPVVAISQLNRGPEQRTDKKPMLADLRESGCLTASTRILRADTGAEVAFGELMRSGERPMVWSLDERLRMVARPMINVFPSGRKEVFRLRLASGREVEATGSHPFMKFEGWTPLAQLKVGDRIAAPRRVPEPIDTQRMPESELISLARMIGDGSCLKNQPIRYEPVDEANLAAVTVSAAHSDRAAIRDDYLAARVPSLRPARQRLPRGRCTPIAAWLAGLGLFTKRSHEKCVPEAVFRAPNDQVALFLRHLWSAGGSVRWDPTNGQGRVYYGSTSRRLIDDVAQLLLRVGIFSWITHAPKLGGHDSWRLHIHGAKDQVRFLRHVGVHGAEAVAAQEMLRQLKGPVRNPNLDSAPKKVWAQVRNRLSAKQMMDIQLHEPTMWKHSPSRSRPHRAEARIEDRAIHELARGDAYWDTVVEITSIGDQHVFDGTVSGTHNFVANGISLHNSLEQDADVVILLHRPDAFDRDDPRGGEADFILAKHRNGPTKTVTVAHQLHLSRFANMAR
As to the kind of experiment: DnaB intein splicing inhibitors, dose response, biochemical, cell-free fluorescence (AID 449749). The format is functional.

Another assay deals with T5, Protein RecA (Mycobacterium tuberculosis, UniProt P9WHJ3).
T5 sequence (P9WHJ3 whole entry): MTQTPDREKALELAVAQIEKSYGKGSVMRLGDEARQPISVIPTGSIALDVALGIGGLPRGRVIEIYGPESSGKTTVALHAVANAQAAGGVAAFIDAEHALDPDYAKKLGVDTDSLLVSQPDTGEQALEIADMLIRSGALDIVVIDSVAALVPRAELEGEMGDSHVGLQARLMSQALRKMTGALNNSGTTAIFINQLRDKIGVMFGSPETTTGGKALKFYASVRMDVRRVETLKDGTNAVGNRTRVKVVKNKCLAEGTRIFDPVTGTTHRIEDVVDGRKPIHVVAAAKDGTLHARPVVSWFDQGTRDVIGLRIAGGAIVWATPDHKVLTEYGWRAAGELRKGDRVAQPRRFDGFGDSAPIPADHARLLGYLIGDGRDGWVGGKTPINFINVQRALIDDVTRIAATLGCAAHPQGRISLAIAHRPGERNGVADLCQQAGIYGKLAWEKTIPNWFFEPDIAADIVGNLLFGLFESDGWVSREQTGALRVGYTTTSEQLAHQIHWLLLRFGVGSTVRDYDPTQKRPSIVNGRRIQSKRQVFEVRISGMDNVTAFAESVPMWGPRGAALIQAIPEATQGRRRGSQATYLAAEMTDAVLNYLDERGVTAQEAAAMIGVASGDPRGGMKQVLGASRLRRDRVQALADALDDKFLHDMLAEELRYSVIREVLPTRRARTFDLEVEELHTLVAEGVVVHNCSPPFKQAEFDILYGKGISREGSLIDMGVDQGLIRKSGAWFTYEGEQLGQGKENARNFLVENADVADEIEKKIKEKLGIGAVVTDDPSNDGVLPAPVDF
Briefly: Fluorescence Cell-Free Homogeneous Dose Retest to Identify Inhibitors of RecA-Intein Splicing Activity. [Related pubchem assays (depositor defined):AID2097, AID2223, AID489010, AID492950]. The format is functional.

In a further assay the test system is Vero. Briefly: viability of Vero cells under compound – cytotoxicity control for flavivirus capping enzyme inhibitors (AID 588742). To be noted: Chlorocebus sabaeus. The format is functional.
The nature of assay [9]: rise of 2N DNA cells, HeLa – IC50, dose response (AID 1117349). The format is functional, cell-based.
Assay [10] can be described thus: Reduced DLD-1 viability, concentration-response, CellTiter-Glo luminescence (AID 1117352). The format is functional. A general note: In ATP-based viability assays light output follows the ATP content of the culture.
Assay [11] in a line: cytotoxicity toward HCT116 cells – cell-based, CellTiter-Glo luminescence, IC50, dose response (AID 1117332). The format is functional. To be noted: HCT-116.
Assay [12] in a line: HCT116 cell viability decrease, GSK3B pretreatment – CellTiter-Glo, IC50, dose response (AID 1117339). The format is functional. To be noted: HCT-116.
Assay [13] can be described thus: rise of 4N DNA cells, HeLa – IC50, dose response (AID 1117351). The format is functional, cell-based.
A short description of assay [14]: RKO cell viability reduction, dose response, CellTiter-Glo luminescence (AID 1117322). The format is functional.
Assay [15] in a line: cytotoxicity toward Colo320 cells – cell-based, CellTiter-Glo luminescence, IC50, dose response (AID 1117334). The format is functional. To be noted: COLO 320.
Assay [16] in a line: SNU-C1 cell viability reduction, dose response, CellTiter-Glo luminescence (AID 1117323). The format is functional, cell-based.
Assay [17] is described as follows: CellTiter-Glo luminescence survival assay, SW480 colon tumor line, concentration-response curve, half-maximal inhibitory concentration (AID 1117338). The format is functional.
Assay [18] can be described thus: cytotoxicity toward HT-29 cells – cell-based, CellTiter-Glo luminescence, IC50, dose response (AID 1117330). The format is functional.

Chain of Genome polyprotein (P29990 2492-3391 limits assumed): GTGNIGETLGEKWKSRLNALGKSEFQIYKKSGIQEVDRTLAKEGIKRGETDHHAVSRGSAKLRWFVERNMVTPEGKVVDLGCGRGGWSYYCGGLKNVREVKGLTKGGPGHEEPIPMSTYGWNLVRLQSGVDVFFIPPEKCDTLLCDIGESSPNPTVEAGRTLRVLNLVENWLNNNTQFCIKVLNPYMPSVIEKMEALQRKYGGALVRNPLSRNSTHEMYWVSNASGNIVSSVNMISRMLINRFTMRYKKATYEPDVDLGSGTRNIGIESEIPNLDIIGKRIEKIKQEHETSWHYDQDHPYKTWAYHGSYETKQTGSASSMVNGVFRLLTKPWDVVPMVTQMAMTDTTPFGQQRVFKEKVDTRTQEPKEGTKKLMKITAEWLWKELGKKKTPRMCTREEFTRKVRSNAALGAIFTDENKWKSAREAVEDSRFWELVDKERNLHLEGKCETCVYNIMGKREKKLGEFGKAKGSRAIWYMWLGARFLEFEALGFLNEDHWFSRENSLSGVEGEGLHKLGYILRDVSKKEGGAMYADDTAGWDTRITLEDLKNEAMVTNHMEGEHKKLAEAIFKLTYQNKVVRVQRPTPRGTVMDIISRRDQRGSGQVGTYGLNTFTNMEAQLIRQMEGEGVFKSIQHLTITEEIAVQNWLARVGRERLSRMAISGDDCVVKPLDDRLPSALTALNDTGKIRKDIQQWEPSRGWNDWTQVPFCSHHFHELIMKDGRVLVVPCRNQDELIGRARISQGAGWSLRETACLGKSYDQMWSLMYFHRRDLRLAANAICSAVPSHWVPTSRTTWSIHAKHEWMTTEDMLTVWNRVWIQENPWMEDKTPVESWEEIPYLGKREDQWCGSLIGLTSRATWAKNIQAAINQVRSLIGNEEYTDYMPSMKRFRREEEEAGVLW
Chain of Voltage-gated inwardly rectifying potassium channel KCNH2 (Q12809 whole entry): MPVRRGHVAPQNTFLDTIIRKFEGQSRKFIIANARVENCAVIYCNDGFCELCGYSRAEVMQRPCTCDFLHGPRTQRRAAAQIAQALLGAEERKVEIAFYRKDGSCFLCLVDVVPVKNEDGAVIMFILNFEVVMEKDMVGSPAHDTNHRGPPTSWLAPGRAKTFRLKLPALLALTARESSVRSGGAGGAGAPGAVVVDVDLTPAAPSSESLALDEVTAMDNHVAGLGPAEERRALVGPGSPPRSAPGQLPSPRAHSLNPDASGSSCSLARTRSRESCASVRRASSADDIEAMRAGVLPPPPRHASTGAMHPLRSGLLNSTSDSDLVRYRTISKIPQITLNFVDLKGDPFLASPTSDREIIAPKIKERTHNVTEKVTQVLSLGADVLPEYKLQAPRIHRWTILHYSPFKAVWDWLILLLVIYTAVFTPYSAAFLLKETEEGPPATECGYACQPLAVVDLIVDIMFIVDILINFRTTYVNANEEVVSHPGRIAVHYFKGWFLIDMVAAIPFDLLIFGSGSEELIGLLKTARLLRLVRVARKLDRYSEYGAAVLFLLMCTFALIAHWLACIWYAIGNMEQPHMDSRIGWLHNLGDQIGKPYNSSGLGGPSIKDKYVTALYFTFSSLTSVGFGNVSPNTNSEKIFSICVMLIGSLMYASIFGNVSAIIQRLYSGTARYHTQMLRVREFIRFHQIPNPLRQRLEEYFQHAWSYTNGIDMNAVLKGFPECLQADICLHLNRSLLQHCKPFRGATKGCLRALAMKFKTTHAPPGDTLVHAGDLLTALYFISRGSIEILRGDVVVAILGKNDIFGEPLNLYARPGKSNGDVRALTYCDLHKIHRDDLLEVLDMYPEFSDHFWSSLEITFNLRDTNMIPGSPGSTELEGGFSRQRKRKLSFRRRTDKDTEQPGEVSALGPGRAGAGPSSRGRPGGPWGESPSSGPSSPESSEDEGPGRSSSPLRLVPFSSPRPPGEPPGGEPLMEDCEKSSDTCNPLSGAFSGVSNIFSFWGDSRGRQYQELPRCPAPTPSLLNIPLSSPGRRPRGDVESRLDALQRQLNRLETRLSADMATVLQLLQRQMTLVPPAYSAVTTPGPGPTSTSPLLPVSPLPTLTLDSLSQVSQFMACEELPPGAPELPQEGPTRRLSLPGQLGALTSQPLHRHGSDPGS
Chain of Mitogen-activated protein kinase 10 (P53779 whole entry): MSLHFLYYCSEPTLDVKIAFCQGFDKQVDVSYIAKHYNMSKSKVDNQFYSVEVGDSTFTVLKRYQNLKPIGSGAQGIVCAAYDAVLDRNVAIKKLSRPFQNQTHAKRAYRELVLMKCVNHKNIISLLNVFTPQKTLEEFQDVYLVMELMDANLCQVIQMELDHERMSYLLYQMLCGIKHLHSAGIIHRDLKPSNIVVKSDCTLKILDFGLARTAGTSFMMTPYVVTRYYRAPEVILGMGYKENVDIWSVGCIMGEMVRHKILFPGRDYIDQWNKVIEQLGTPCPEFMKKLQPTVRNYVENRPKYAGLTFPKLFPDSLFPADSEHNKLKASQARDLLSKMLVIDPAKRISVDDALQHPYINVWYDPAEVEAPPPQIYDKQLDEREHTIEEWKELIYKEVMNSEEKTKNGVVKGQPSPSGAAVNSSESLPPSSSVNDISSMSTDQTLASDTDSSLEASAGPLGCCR

Take `Cc1ccsc1C(=O)C1CCCN(Cc2c(C)nn(C(C)C)c2C)C1` (centres undefined): the EC50 in assay [1] is > 60 µM (not active); in the assay “cells”, 0.008 µM (active); in assay [2], < 0.1 µM (active).

Regarding `Fc1ccc(NC(S)=Nc2ccc3nccnc3c2)cc1`, the figures for the 50% inhibitory concentration (IC50) (in the assay on H9c2; in assay [3]) were 22.5 µM (active) and > 50 µM (not active), respectively.

On to `COC(=O)c1cccc(NC(=O)CN2CCC(NC(=O)c3cc(OC)c(OC)c(OC)c3)CC2)c1`, for which the concentration for half-maximal inhibition (IC50) in [4] was 1.7 µM (active).

For `FC(F)(F)c1cnc2c(c1)nc(S)n2-c1ccc(Cl)cc1`, in [5], the concentration giving a half-maximal response (EC50) is 4.84 µM (active).

As for `COc1ccc2c(c1)-c1nc(/N=C/c3c(O)ccc4ccccc34)sc1CC2`, the values for the concentration for half-maximal inhibition (IC50) (at Genome polyprotein; in [6]; in assay [3]) were 6.25 µM (active), 22.2 µM (active) and 13 µM (active), respectively. The values for the EC50 (in [7]; at Protein RecA) were > 260 µM (inactive) and > 380 µM (inconclusive), respectively. Further, the concentration at half-maximal activity (AC50) in assay [8] was 40.8 µM (active). Further, in the assay on Vero, the 50% cytotoxic concentration (CC50) was > 40 µM (active).

For `COc1c(C)c2c(c(O)c1C/C=C(\C)CCC(=O)OCCN1CCOCC1)C(=O)OC2` [MYCOPHENOLATE MOFETIL], the IC50 is > 10 µM (inactive) in assay [9]; > 20 µM (inactive) in assay [10]; 0.0672 µM (active) in assay [11]; 0.0498 µM (active) in [12]; > 10 µM (inactive) in assay [13]; 0.165 µM (active) in assay [14]. Moreover, the IC50 was 0.001 µM (active) in assay [15], > 20 µM (inactive) in [16], 2.6 µM (active) in [17] and > 20 µM (inactive) in assay [18].

(Values after ChEMBL document CHEMBL1201862, “PubChem BioAssay data set” (2004).)
